The source of these data is article PMC7935272 (PLoS Pathogens, 2021).

“And” between values parts separate entries of the source, which are not always exact repeats. Equal values may be shown once.

The target of one data set is WT MeV L-P complexes (Measles virus, UniProt Q9WMB3). The experiment in a line: In vitro MeV RdRP assay, de novo initiation, 16-nt template, L WT. Conditions: de novo RNA synthesis, S9 Fig. The format is biochemical.
The test system of a further data set is MeV. Description: Antiviral dose-response assay, MeV-NanoPEST reporter virus in Vero-hSLAM cells.
Another data set is described as follows: in vitro. The class given is cell-based, African green monkey. Conditions: African green monkey; Vero-hSLAM, 72 hours. On the procedure: (§1) To determine cytotoxic concentrations Vero-hSLAM cells were plated in 96 well plates (1.1 × 10^4 per well) and incubated with three-fold serial dilutions of compound. After incubation of uninfected cells for 72 hours, PrestoBlue substrate (Invitrogen) was added to quantify cell metabolic activity as described. Signal was measured using a BioTek H1 synergy multimode microplate reader. Where applicable, cytotoxic concentrations (CC50) were calculated based on four-parameter variable slope regression modeling.

Another data set has as its system Vero-hSLAM cells. The experiment in a line: in vitro. The class given is cell-based, African green monkey. On the procedure: as §1

Chain of WT MeV L-P complexes (Q9WMB3 whole entry): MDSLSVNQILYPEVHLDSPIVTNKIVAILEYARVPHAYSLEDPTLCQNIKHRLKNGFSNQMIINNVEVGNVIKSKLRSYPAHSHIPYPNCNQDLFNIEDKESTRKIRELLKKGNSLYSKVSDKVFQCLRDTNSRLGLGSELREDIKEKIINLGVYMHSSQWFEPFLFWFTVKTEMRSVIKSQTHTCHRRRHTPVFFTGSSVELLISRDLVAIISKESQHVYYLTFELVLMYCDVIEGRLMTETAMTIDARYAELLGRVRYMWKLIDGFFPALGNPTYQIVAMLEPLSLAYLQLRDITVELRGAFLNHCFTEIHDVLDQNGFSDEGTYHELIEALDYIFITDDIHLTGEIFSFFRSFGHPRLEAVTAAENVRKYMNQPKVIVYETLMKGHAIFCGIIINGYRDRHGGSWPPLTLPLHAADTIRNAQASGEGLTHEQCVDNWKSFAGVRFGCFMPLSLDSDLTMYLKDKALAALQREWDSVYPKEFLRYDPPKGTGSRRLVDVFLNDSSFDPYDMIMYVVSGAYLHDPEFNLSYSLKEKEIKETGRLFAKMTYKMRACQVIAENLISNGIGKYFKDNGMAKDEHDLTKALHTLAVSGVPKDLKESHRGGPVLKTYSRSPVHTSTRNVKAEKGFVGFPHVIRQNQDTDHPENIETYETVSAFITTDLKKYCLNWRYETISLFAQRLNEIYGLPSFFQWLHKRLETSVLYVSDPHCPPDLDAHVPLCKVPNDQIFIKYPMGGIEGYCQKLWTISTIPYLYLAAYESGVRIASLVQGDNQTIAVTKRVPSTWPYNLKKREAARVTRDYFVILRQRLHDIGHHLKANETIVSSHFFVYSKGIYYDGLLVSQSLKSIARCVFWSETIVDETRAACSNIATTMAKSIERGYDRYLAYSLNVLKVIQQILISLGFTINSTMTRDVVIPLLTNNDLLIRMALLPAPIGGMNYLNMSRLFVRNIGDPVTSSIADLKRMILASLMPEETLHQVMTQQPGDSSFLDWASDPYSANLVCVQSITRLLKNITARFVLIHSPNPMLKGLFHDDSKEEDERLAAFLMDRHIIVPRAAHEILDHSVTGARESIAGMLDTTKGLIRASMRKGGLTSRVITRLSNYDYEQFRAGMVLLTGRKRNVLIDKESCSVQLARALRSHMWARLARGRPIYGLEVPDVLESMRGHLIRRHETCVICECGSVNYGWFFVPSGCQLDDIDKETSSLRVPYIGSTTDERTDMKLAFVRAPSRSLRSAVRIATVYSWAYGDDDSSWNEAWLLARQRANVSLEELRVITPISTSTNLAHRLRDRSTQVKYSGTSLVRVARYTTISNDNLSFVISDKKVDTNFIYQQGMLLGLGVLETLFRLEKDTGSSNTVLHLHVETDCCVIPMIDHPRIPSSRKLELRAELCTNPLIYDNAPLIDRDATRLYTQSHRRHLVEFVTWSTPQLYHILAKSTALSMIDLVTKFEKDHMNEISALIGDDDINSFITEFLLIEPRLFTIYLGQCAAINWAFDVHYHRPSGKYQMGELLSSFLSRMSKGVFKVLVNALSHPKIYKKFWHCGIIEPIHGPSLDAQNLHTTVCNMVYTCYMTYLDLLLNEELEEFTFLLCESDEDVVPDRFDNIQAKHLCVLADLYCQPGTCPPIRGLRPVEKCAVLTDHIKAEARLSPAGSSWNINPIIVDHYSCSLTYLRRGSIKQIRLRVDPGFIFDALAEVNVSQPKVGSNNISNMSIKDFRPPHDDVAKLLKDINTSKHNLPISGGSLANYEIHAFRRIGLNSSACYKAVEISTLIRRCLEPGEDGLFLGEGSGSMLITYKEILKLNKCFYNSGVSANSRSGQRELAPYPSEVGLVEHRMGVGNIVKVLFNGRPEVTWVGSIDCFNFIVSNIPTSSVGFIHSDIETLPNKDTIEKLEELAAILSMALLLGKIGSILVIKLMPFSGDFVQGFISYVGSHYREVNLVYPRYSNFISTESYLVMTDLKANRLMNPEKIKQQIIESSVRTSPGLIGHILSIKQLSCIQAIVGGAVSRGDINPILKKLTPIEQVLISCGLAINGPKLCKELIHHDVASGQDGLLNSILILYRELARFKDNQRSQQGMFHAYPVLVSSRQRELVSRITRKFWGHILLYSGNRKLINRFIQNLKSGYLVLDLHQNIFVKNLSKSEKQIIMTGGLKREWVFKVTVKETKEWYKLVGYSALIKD
Chain of WT MeV L-P complexes (Q9WMB4 whole entry partner): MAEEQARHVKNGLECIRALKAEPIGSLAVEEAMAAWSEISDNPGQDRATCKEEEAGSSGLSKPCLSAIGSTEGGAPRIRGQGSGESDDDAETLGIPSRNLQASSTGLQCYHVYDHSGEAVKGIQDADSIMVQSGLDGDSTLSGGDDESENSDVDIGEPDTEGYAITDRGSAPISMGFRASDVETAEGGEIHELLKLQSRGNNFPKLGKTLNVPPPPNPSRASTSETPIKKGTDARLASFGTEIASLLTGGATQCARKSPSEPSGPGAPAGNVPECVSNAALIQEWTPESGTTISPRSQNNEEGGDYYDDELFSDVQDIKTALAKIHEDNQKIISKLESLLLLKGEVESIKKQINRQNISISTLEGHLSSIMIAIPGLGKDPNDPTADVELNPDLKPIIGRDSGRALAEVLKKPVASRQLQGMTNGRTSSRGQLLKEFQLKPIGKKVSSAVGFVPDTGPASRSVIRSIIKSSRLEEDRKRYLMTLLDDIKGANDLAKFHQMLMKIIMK

On to `Cn1nc(C(F)(F)F)cc1C(=O)Nc1ccc(S(=O)(=O)N2CCCC[C@@H]2CCOCc2ccc(N=[N+]=[N-])cc2)cc1` [ERDRP-0519az, S(=O)(=O)(N1[C@@H](CCOCc2ccc(N=[N+]=[N-])cc2)CCCC1)c1ccc(NC(=O)c2n(C)nc(C(F)(F)F)c2)cc1], for which the “bioactivity in the in vitro RdRP assay” value at WT MeV L-P complexes is on record as “diminished potency”. In addition, a half-maximal effect in the data set with MeV (EC50) was put at 12.1 µM. For the same compound, the “MeV inhibition, normalized reporter signal (Figure 5B)” value with MeV (cpd concentration 0.045725) is 95.5633 and 136.086 and 77.2785; in the data set with MeV (cpd concentration 0.137174) it was 112.785 and 92.1722 and 86.1147; in the data set with MeV (cpd concentration 0.411523) it was 116.552 and 130.546 and 132.822; in the data set on MeV (cpd concentration 1.23457), 119.15 and 109.045 and 127.688; in the data set with MeV (cpd concentration 11.1111), 44.8748 and 67.0329 and 58.1588; in the data set with MeV (cpd concentration 33.3333), 8.061 and 7.668 and 10.5185. Also, the “MeV inhibition, normalized reporter signal (Figure 5B)” value in the data set with MeV (cpd concentration 100) was 2.512 and 3.634 and 2.904. In addition, the cytotoxic concentration (CC50) (in general, the concentration at which the toxic effect on the cells reaches its halfway point) in “in vitro” is greater than 100 µM. Moreover, the “Cytotoxicity, normalized metabolic activity (Figure 5B)” value in the data set on Vero-hSLAM cells (cpd concentration 0.045725) was 97.5938 and 98.2663 and 103.31; in the data set with Vero-hSLAM cells (cpd concentration 0.137174), 101.061 and 94.8618 and 104.907; in the data set on Vero-hSLAM cells (cpd concentration 0.411523), 95.7655 and 116.003 and 116.276; in the data set on Vero-hSLAM cells (cpd concentration 1.23457), 92.9074 and 113.376 and 114.469; in the data set on Vero-hSLAM cells (cpd concentration 3.7037), 94.1683 and 104.487 and 118.02; with Vero-hSLAM cells (cpd concentration 11.1111) it was 88.7254 and 96.8582 and 105.432. Besides, the “Cytotoxicity, normalized metabolic activity (Figure 5B)” value in the data set on Vero-hSLAM cells (cpd concentration 33.3333) was 97.5097 and 90.4066 and 94.9249; in the data set on Vero-hSLAM cells (cpd concentration 100), 99.0228 and 98.1192 and 101.776. Besides, the cytotoxicity entry with Vero-hSLAM cells (highest concentration tested (100 μM)) is given as “No cytotoxicity was detectable”.
